Experimental data reported in patent publication US12257237B2 (priority 2017, dated 2025).
“And” between values parts separate entries of the source, which are not always exact repeats. Equal entries are not always repeated.

Assay: Drug tolerability (body weight) in TC-71 Ewing sarcoma xenograft model
Type: in vivo, Athymic nude mice
Settings: for BWL %: negative = loss vs day 9
Method: Experiments were performed with female Athymic nude mice, 9-10 weeks old obtained from Harlan Laboratories (Udine, Italy). They were maintained under Specific Pathogen Free conditions with constant temperature and humidity, according to the institutional guidelines.
Tumour growth mice was monitored two/three times a week (depending on tumour growth rate, to avoid unnecessary stress to the animals) by Vernier caliper. Mice were sacrificed when tumour reached a mean weight of 2±0.5 gr. The antitumour activity will be expressed as T/C %, where T and C were the mean tumour weight of treated and control groups, respectively. Mice were monitored daily and weighted at least two times a week. Tolerability was evaluated on the basis of body weight loss (BWL) and clinical observation.

[1] = EDO40: EDO-S101 40 mg/kg, day 9 from tumour inoculum (treatment start)
[2] = EDO40: EDO-S101 40 mg/kg, day 10 from tumour inoculum
[3] = EDO40: EDO-S101 40 mg/kg, day 11 from tumour inoculum
[4] = EDO40: EDO-S101 40 mg/kg, day 14 from tumour inoculum
[5] = EDO40: EDO-S101 40 mg/kg, day 16 from tumour inoculum
[6] = EDO40: EDO-S101 40 mg/kg, day 18 from tumour inoculum
[7] = EDO40: EDO-S101 40 mg/kg, day 21 from tumour inoculum
[8] = EDO40: EDO-S101 40 mg/kg, day 23 from tumour inoculum
[9] = EDO40: EDO-S101 40 mg/kg, day 25 from tumour inoculum
[10] = EDO40: EDO-S101 40 mg/kg, day 28 from tumour inoculum
[11] = EDO40: EDO-S101 40 mg/kg, day 30 from tumour inoculum
[12] = EDO40: EDO-S101 40 mg/kg, day 32 from tumour inoculum
[13] = EDO60: EDO-S101 60 mg/kg, day 9 from tumour inoculum (treatment start)
[14] = EDO60: EDO-S101 60 mg/kg, day 10 from tumour inoculum
[15] = EDO60: EDO-S101 60 mg/kg, day 11 from tumour inoculum
[16] = EDO60: EDO-S101 60 mg/kg, day 14 from tumour inoculum
[17] = EDO60: EDO-S101 60 mg/kg, day 16 from tumour inoculum
[18] = EDO60: EDO-S101 60 mg/kg, day 18 from tumour inoculum
[19] = EDO60: EDO-S101 60 mg/kg, day 21 from tumour inoculum
[20] = EDO60: EDO-S101 60 mg/kg, day 23 from tumour inoculum
[21] = EDO60: EDO-S101 60 mg/kg, day 25 from tumour inoculum
[22] = EDO60: EDO-S101 60 mg/kg, day 28 from tumour inoculum
[23] = EDO60: EDO-S101 60 mg/kg, day 30 from tumour inoculum
[24] = EDO60: EDO-S101 60 mg/kg, day 32 from tumour inoculum
[25] = EDO60: EDO-S101 60 mg/kg, day 35 from tumour inoculum
[26] = EDO60: EDO-S101 60 mg/kg, day 38 from tumour inoculum
[27] = EDO60: EDO-S101 60 mg/kg, day 42 from tumour inoculum
[28] = EDO60: EDO-S101 60 mg/kg, day 46 from tumour inoculum
[29] = EDO60: EDO-S101 60 mg/kg, day 49 from tumour inoculum
[30] = EDO60: EDO-S101 60 mg/kg, day 53 from tumour inoculum
[31] = EDO60: EDO-S101 60 mg/kg, day 56 from tumour inoculum
[32] = EDO80: EDO-S101 80 mg/kg, day 9 from tumour inoculum (treatment start)
[33] = EDO80: EDO-S101 80 mg/kg, day 10 from tumour inoculum
[34] = EDO80: EDO-S101 80 mg/kg, day 11 from tumour inoculum
[35] = EDO80: EDO-S101 80 mg/kg, day 14 from tumour inoculum
[36] = EDO80: EDO-S101 80 mg/kg, day 16 from tumour inoculum
[37] = EDO80: EDO-S101 80 mg/kg, day 18 from tumour inoculum
[38] = EDO80: EDO-S101 80 mg/kg, day 21 from tumour inoculum
[39] = EDO80: EDO-S101 80 mg/kg, day 23 from tumour inoculum
[40] = EDO80: EDO-S101 80 mg/kg, day 25 from tumour inoculum
[41] = EDO80: EDO-S101 80 mg/kg, day 28 from tumour inoculum
[42] = EDO80: EDO-S101 80 mg/kg, day 30 from tumour inoculum
[43] = EDO80: EDO-S101 80 mg/kg, day 32 from tumour inoculum
[44] = EDO80: EDO-S101 80 mg/kg, day 35 from tumour inoculum
[45] = EDO80: EDO-S101 80 mg/kg, day 38 from tumour inoculum
[46] = EDO80: EDO-S101 80 mg/kg, day 42 from tumour inoculum
[47] = EDO80: EDO-S101 80 mg/kg, day 46 from tumour inoculum
[48] = EDO80: EDO-S101 80 mg/kg, day 49 from tumour inoculum

## Cn1c(CCCCCCC(=O)NO)nc2cc(N(CCCl)CCCl)ccc21 [EDO-S101, 7-(5-(bis(2-chloroethyl)amino)-1-methyl-1H-benzo[d]imidazol-2-yl)-N-hydroxyheptanamide]
40 mg/kg group, unknown reasons, probably not ascribable to the drug
  mice found dead: One
40 mg/kg, day 10, 24 h after the first dose
  maximum BWL: 5.4%
60 mg/kg, day 25, 48 h after the third dose
  maximum BWL: 11.7%
80 mg/kg, day 14, 5 days after administration
  maximum body weight loss: 19.3%
80 mg/kg, recovered by day 24
  time to recovery from body weight loss: ≤ 10 days
[1]
  Mouse body weight, group Mean: 27.0 g
  BWL %: 0.0%
[2]
  Mouse body weight, group Mean: 25.6 g
  BWL %: −5.4%
[3]
  Mouse body weight, group Mean: 25.9 g
  BWL %: −4.0%
[4]
  Mouse body weight, group Mean: 26.6 g
  BWL %: −1.6%
[5]
  Mouse body weight, group Mean: 27.2 g
  BWL %: 0.7%
[6]
  Mouse body weight, group Mean: 26.1 g
  BWL %: −3.4%
[7]
  Mouse body weight, group Mean: 26.2 g
  BWL %: −3.0%
[8]
  Mouse body weight, group Mean: 27.1 g
  BWL %: 0.3%
[9]
  Mouse body weight, group Mean: 26.3 g
  BWL %: −2.9%
[10]
  Mouse body weight, group Mean: 27.7 g
  BWL %: 2.3%
[11]
  Mouse body weight, group Mean: 28.5 g
  BWL %: 5.3%
[12]
  Mouse body weight, group Mean: 28.7 g
  BWL %: 6.0%
[13]
  Mouse body weight, group Mean: 27.6 g
  BWL %: 0.0%
[14]
  Mouse body weight, group Mean: 25.6 g
  BWL %: −7.0%
[15]
  Mouse body weight, group Mean: 25.2 g
  BWL %: −8.6%
[16]
  Mouse body weight, group Mean: 25.4 g
  BWL %: −8.1%
[17]
  Mouse body weight, group Mean: 26.2 g
  BWL %: −5.1%
[18]
  Mouse body weight, group Mean: 25.2 g
  BWL %: −8.8%
[19]
  Mouse body weight, group Mean: 24.9 g
  BWL %: −9.8%
[20]
  Mouse body weight, group Mean: 25.0 g
  BWL %: −9.2%
[21]
  Mouse body weight, group Mean: 24.4 g
  BWL %: −11.7%
[22]
  Mouse body weight, group Mean: 25.3 g
  BWL %: −8.3%
[23]
  Mouse body weight, group Mean: 25.6 g
  BWL %: −7.3%
[24]
  Mouse body weight, group Mean: 26.4 g
  BWL %: −4.2%
[25]
  Mouse body weight, group Mean: 25.4 g
  BWL %: −8.0%
[26]
  Mouse body weight, group Mean: 25.8 g
  BWL %: −6.6%
[27]
  Mouse body weight, group Mean: 25.8 g
  BWL %: −6.5%
[28]
  Mouse body weight, group Mean: 25.1 g
  BWL %: −8.9%
[29]
  Mouse body weight, group Mean: 25.4 g
  BWL %: −8.1%
[30]
  Mouse body weight, group Mean: 26.7 g
  BWL %: −3.1%
[31]
  Mouse body weight, group Mean: 28.1 g
  BWL %: 2.0%
[32]
  Mouse body weight, group Mean: 27.9 g
  BWL %: 0.0%
EDO80: EDO-S101 80 mg/kg, day 9 from tumour inoculum (treatment start), 80 mg/kg
  Mouse body weight, individual mice: 28.4 g and 25.3 g and 26.1 g and 26.6 g and 28.5 g and 27.5 g and 32 g and 28.7 g
[33]
  Mouse body weight, group Mean: 25.3 g
  BWL %: −9.5%
EDO80: EDO-S101 80 mg/kg, day 10 from tumour inoculum, 80 mg/kg
  Mouse body weight, individual mice: 25.1 g and 22.8 g and 24 g and 24.8 g and 26.8 g and 24.4 g and 28.6 g and 25.5 g
[34]
  Mouse body weight, group Mean: 24.8 g
  BWL %: −11.1%
EDO80: EDO-S101 80 mg/kg, day 11 from tumour inoculum, 80 mg/kg
  Mouse body weight, individual mice: 24.9 g and 22.6 g and 23.5 g and 24.7 g and 26 g and 24.4 g and 27.9 g and 24.3 g
[35]
  Mouse body weight, group Mean: 22.5 g
  BWL %: −19.3%
EDO80: EDO-S101 80 mg/kg, day 14 from tumour inoculum, 80 mg/kg
  Mouse body weight, individual mice: 21.8 g and 19.4 g and 22.4 g and 23.5 g and 23.2 g (2×) and 23.8 g and 22.7 g
[36]
  Mouse body weight, group Mean: 23.9 g
  BWL %: −14.3%
EDO80: EDO-S101 80 mg/kg, day 16 from tumour inoculum, 80 mg/kg
  Mouse body weight, individual mice: 23.3 g and 19.7 g and 24.2 g and 25.1 g and 24.8 g and 24.4 g and 26.9 g and 22.9 g
[37]
  Mouse body weight, group Mean: 25.2 g
  BWL %: −9.6%
EDO80: EDO-S101 80 mg/kg, day 18 from tumour inoculum, 80 mg/kg
  Mouse body weight, individual mice: 24.1 g and 22.2 g and 24.8 g and 26 g and 27 g and 26.1 g and 28 g
[38]
  Mouse body weight, group Mean: 26.2 g
  BWL %: −6.1%
EDO80: EDO-S101 80 mg/kg, day 21 from tumour inoculum, 80 mg/kg
  Mouse body weight, individual mice: 25.7 g and 22.6 g and 26.5 g and 26.2 g and 27.4 g and 26.3 g and 29.6 g and 25.2 g
[39]
  Mouse body weight, group Mean: 26.6 g
  BWL %: −4.6%
EDO80: EDO-S101 80 mg/kg, day 23 from tumour inoculum, 80 mg/kg
  Mouse body weight, individual mice: 26.1 g and 23.8 g and 26.6 g (3×) and 27.9 g and 30.1 g and 25.2 g
[40]
  Mouse body weight, group Mean: 27.8 g
  BWL %: −0.4%
EDO80: EDO-S101 80 mg/kg, day 25 from tumour inoculum, 80 mg/kg
  Mouse body weight, individual mice: 27 g and 25.1 g and 27.9 g and 27.7 g and 28.8 g
[41]
  Mouse body weight, group Mean: 28.9 g
  BWL %: 3.6%
EDO80: EDO-S101 80 mg/kg, day 28 from tumour inoculum, 80 mg/kg
  Mouse body weight, individual mice: 27.9 g and 25.4 g and 28.7 g and 28.1 g
[42]
  Mouse body weight, group Mean: 28.5 g
  BWL %: 2.1%
EDO80: EDO-S101 80 mg/kg, day 30 from tumour inoculum, 80 mg/kg
  Mouse body weight, individual mice: 28.2 g and 25.3 g and 27.3 g and 27.9 g
[43]
  Mouse body weight, group Mean: 28.0 g
  BWL %: 0.4%
EDO80: EDO-S101 80 mg/kg, day 32 from tumour inoculum, 80 mg/kg
  Mouse body weight, individual mice: 27.4 g (2×) and 24.9 g and 26.6 g
[44]
  Mouse body weight, group Mean: 25.1 g
  BWL %: −9.9%
EDO80: EDO-S101 80 mg/kg, day 35 from tumour inoculum, 80 mg/kg
  Mouse body weight, individual mice: 24.4 g and 21.9 g and 24.8 g and 26.1 g
[45]
  Mouse body weight, group Mean: 25.0 g
  BWL %: −10.4%
EDO80: EDO-S101 80 mg/kg, day 38 from tumour inoculum, 80 mg/kg
  Mouse body weight, individual mice: 24.4 g and 21.8 g and 25.1 g and 25.3 g
[46]
  Mouse body weight, group Mean: 27.1 g
  BWL %: −2.9%
EDO80: EDO-S101 80 mg/kg, day 42 from tumour inoculum, 80 mg/kg
  Mouse body weight, individual mice: 26.3 g and 23.1 g and 27 g and 28 g
[47]
  Mouse body weight, group Mean: 28.8 g
  BWL %: 3.1%
EDO80: EDO-S101 80 mg/kg, day 46 from tumour inoculum, 80 mg/kg
  Mouse body weight, individual mice: 28.6 g and 25.3 g and 28.3 g and 30 g
[48]
  Mouse body weight, group Mean: 30.2 g
  BWL %: 8.2%
EDO80: EDO-S101 80 mg/kg, day 49 from tumour inoculum, 80 mg/kg
  Mouse body weight, individual mice: 29.8 g and 26 g and 30 g and 32.3 g
All dose regimens
  BWL during second cycle: < 9%
